Experimental data as given in PubChem BioAssay AID330 (DTP/NCI, 2004).
Several values for one entry are separate records, joined by “and”; a condition that tells them apart may be missing. Identical values can stand only once. Toxic doses and inconclusive results are not listed. Rule for the calls: active = survival T/C of 150% or more; inactive = T/C below 125% in these data. Peptide text beside a SMILES is read from it. * marks the point of attachment. Cbz = O=C(OCc1ccccc1)*

Test system: P388 leukemia ip, CD2F1 mice, survival T/C
Assay: NCI In Vivo Anticancer Drug Screen. Data for tumor model P388 Leukemia (intraperitoneal) in CD2F1 (CDF1) mice
Conditions: endpoint: median survival time, higher = longer survival
Experimental: The antitumor activity of compounds was measured in mice bearing transplantable tumors. Survival or tumor size were measured and the results are expressed as the measurement made in the treated group (T) divided by the measurement made in the vehicle treated control group (C). The tumor model used in this assay is P388 Leukemia (intraperitoneal) in CD2F1 (CDF1) mice

[1] = dose: 60.0 mg/kg/injection, schedule: Q01DX005 (ip), vehicle: saline with Tween-80
[2] = dose: 120.0 mg/kg/injection, schedule: Q01DX005 (ip), vehicle: saline with Tween-80
[3] = dose: 100.0 mg/kg/injection, schedule: Q01DX009 (ip), vehicle: saline with Tween-80
[4] = dose: 100.0 mg/kg/injection, schedule: Q01DX009 (ip), vehicle: saline
[5] = dose: 100.0 mg/kg/injection, schedule: Q04DX003 (ip), vehicle: saline with Tween-80
[6] = dose: 200.0 mg/kg/injection, schedule: Q01DX009 (ip), vehicle: saline with Tween-80
[7] = dose: 200.0 mg/kg/injection, schedule: Q01DX009 (ip), vehicle: saline
[8] = dose: 200.0 mg/kg/injection, schedule: Q04DX003 (ip), vehicle: saline with Tween-80
[9] = dose: 400.0 mg/kg/injection, schedule: Q01DX009 (ip), vehicle: saline with Tween-80
[10] = dose: 400.0 mg/kg/injection, schedule: Q04DX003 (ip), vehicle: saline with Tween-80
[11] = dose: 50.0 mg/kg/injection, schedule: Q01DX005 (ip), vehicle: saline with Tween-80
[12] = dose: 100.0 mg/kg/injection, schedule: Q01DX005 (ip), vehicle: saline with Tween-80
[13] = dose: 50.0 mg/kg/injection, schedule: Q01DX005 (ip), vehicle: Klucel (hydroxypropylcellulose) (HPC)
[14] = dose: 100.0 mg/kg/injection, schedule: Q01DX005 (ip), vehicle: Klucel (hydroxypropylcellulose) (HPC)
[15] = dose: 200.0 mg/kg/injection, schedule: Q01DX005 (ip), vehicle: Klucel (hydroxypropylcellulose) (HPC)

Measured: T/C

OCCN1CCN(CC/C=C2/c3ccccc3Sc3ccc(C(F)(F)F)cc32)CC1
inactive: dose: 10.0 mg/kg/injection, schedule: Q04DX003 (ip), vehicle: saline 115 % of control and 123 % of control | dose: 20.0 mg/kg/injection, schedule: Q04DX003 (ip), vehicle: saline 115 % of control | dose: 80.0 mg/kg/injection, schedule: Q04DX003 (ip), vehicle: saline 91 % of control

OC1CNCc2cc3c(cc21)OCO3 (stereo not given)
inactive: dose: 60.0 mg/kg/injection, schedule: Q01DX005 (ip), vehicle: saline 110 % of control | dose: 120.0 mg/kg/injection, schedule: Q01DX005 (ip), vehicle: saline 107 % of control | dose: 240.0 mg/kg/injection, schedule: Q01DX005 (ip), vehicle: saline 100 % of control

CCC(=O)C[N+]12CCN(CC1)CC2
inactive: dose: 25.0 mg/kg/injection, schedule: Q04DX002 (ip), vehicle: Klucel (hydroxypropylcellulose) (HPC) 105 % of control | dose: 50.0 mg/kg/injection, schedule: Q04DX002 (ip), vehicle: Klucel (hydroxypropylcellulose) (HPC) 104 % of control

O=C(NC1=NN(Cc2ccccc2)C(=O)C1)c1ccc(S(=O)(=O)F)cc1
inactive: [1] 113 % of control | [2] 121 % of control

CCOC(=O)c1c(C)c2c(n1C)CCC(C(=O)OCC)C2=O (stereo not given)
inactive: dose: 50.0 mg/kg/injection, schedule: Q04DX003 (ip), vehicle: Klucel (hydroxypropylcellulose) (HPC) 107 % of control | dose: 100.0 mg/kg/injection, schedule: Q04DX003 (ip), vehicle: Klucel (hydroxypropylcellulose) (HPC) 100 % of control | dose: 200.0 mg/kg/injection, schedule: Q04DX003 (ip), vehicle: Klucel (hydroxypropylcellulose) (HPC) 91 % of control

CCNCCC1(C)Oc2ccccc2O1
inactive: dose: 100.0 mg/kg/injection, schedule: Q01DX001 (ip), vehicle: saline 97 % of control

CCOC(=O)c1cn(CC)c2cc(-n3cccc3)ccc2c1=O
inactive: [1] 93 % of control | [2] 98 % of control | dose: 240.0 mg/kg/injection, schedule: Q01DX005 (ip), vehicle: saline with Tween-80 92 % of control

NC(=S)C(F)(F)F
inactive: dose: 75.0 mg/kg/injection, schedule: Q01DX001 (ip), vehicle: saline with Tween-80 103 % of control | dose: 150.0 mg/kg/injection, schedule: Q01DX001 (ip), vehicle: saline with Tween-80 113 % of control | dose: 300.0 mg/kg/injection, schedule: Q01DX001 (ip), vehicle: saline with Tween-80 103 % of control

Ic1ncnc2c1ncn2C1CCCCO1 (stereo not given)
inactive: [3] 95 % of control | [4] 95 % of control | [5] 100 % of control | [6] 100 % of control | [7] 104 % of control | [8] 91 % of control | [9] 90 % of control | [10] 95 % of control

Cc1cccc(NC(=S)/N=C(\SCc2ccccc2)N(C)c2ccccc2)c1
inactive: [11] 90 % of control | [12] 93 % of control

CN1C(c2cccnc2)=NCC12CCCC2
inactive: dose: 7.5 mg/kg/injection, schedule: Q01DX005 (ip), vehicle: saline 98 % of control | dose: 15.0 mg/kg/injection, schedule: Q01DX005 (ip), vehicle: saline 96 % of control | dose: 30.0 mg/kg/injection, schedule: Q01DX005 (ip), vehicle: saline 97 % of control

COC(=O)C(CO)NC(=O)C(CO)NC(=O)OCc1ccccc1 (stereo not drawn) (Cbz-Ser-Ser-OMe; configuration not given here)
inactive: [13] 100 % of control | [14] 98 % of control | [15] 101 % of control

CC1(C)CCCc2conc21
inactive: dose: 50.0 mg/kg/injection, schedule: Q01DX009 (ip), vehicle: saline with Tween-80 96 % of control | [3] 101 % of control | [6] 96 % of control

Br/C(C=Nc1ccccc1)=C\Nc1ccccc1
inactive: [5] 118 % of control | [8] 109 % of control | [10] 104 % of control

Cc1ccc(N=S(C)(C)=O)cc1
inactive: dose: 100.0 mg/kg/injection, schedule: Q01DX001 (ip), vehicle: saline with Tween-80 103 % of control | dose: 200.0 mg/kg/injection, schedule: Q01DX001 (ip), vehicle: saline with Tween-80 104 % of control | dose: 400.0 mg/kg/injection, schedule: Q01DX001 (ip), vehicle: saline with Tween-80 102 % of control

CC12CCC(O1)C1C(=O)NC(=O)C12 (stereo not given)
inactive: dose: 50.0 mg/kg/injection, schedule: Q01DX005 (ip), vehicle: saline 102 % of control | dose: 100.0 mg/kg/injection, schedule: Q01DX005 (ip), vehicle: saline 108 % of control | dose: 200.0 mg/kg/injection, schedule: Q01DX005 (ip), vehicle: saline 100 % of control

NC(=O)N=Nc1ccc(Cl)c(Cl)c1
inactive: [11] 100 % of control | [12] 102 % of control | dose: 200.0 mg/kg/injection, schedule: Q01DX005 (ip), vehicle: saline with Tween-80 102 % of control

Cc1cc2nc3c(=O)[nH]c(=O)nc-3n(CCOC(=O)CCC(=O)O)c2cc1C
inactive: dose: 100.0 mg/kg/injection, schedule: Q04DX003 (ip), vehicle: saline sonified 104 % of control | dose: 200.0 mg/kg/injection, schedule: Q04DX003 (ip), vehicle: saline sonified 114 % of control

CCCCCCCCCCCCCCCC(=O)N(CCCN(C)C)C(C)(C)CCC(C)(C)N(CCCN(C)C)C(=O)CCCCCCCCCCCCCCC
inactive: dose: 25.0 mg/kg/injection, schedule: Q01DX009 (ip), vehicle: other 98 % of control | dose: 50.0 mg/kg/injection, schedule: Q01DX009 (ip), vehicle: other 96 % of control

Nc1[nH]c(=S)nc2nc3c4ccccc4c4ccccc4c3nc12
inactive: [13] 91 % of control | [14] 90 % of control | [15] 91 % of control

CN(C)c1ccc(C(=O)c2ccc(N(C)C)cc2)cc1
inactive: [3] 100 % of control | [6] 112 % of control | [9] 116 % of control

O=C(/C=C\c1ccc(Cl)cc1)c1ccccc1
inactive: dose: 12.5 mg/kg/injection, schedule: Q01DX009 (ip), vehicle: Klucel (hydroxypropylcellulose) (HPC) 101 % of control and 91 % of control | dose: 25.0 mg/kg/injection, schedule: Q01DX009 (ip), vehicle: Klucel (hydroxypropylcellulose) (HPC) 100 % of control | dose: 50.0 mg/kg/injection, schedule: Q01DX009 (ip), vehicle: Klucel (hydroxypropylcellulose) (HPC) 93 % of control and 95 % of control | dose: 50.0 mg/kg/injection, schedule: Q01DX009 (ip), vehicle: gum acacia 98 % of control | dose: 100.0 mg/kg/injection, schedule: Q01DX009 (ip), vehicle: Klucel (hydroxypropylcellulose) (HPC) 99 % of control and 93 % of control | dose: 100.0 mg/kg/injection, schedule: Q01DX009 (ip), vehicle: gum acacia 104 % of control | dose: 200.0 mg/kg/injection, schedule: Q01DX009 (ip), vehicle: Klucel (hydroxypropylcellulose) (HPC) 98 % of control and 100 % of control | dose: 200.0 mg/kg/injection, schedule: Q01DX009 (ip), vehicle: gum acacia 104 % of control | dose: 400.0 mg/kg/injection, schedule: Q01DX009 (ip), vehicle: Klucel (hydroxypropylcellulose) (HPC) 108 % of control and 92 % of control | dose: 400.0 mg/kg/injection, schedule: Q01DX009 (ip), vehicle: gum acacia 104 % of control

O=C(NNc1ccccc1)c1ccccc1Cl
inactive: dose: 25.0 mg/kg/injection, schedule: Q01DX009 (ip), vehicle: saline 101 % of control | dose: 50.0 mg/kg/injection, schedule: Q01DX009 (ip), vehicle: saline 105 % of control | [4] 97 % of control | [7] 98 % of control
